These compounds were tested against T1, Integrin alpha-4 (Homo sapiens, UniProt P13612) (assay: Displacement of [125I]VCAMIg from VLA4 expressed in Jurkat cells).
T1 sequence (P13612 whole entry): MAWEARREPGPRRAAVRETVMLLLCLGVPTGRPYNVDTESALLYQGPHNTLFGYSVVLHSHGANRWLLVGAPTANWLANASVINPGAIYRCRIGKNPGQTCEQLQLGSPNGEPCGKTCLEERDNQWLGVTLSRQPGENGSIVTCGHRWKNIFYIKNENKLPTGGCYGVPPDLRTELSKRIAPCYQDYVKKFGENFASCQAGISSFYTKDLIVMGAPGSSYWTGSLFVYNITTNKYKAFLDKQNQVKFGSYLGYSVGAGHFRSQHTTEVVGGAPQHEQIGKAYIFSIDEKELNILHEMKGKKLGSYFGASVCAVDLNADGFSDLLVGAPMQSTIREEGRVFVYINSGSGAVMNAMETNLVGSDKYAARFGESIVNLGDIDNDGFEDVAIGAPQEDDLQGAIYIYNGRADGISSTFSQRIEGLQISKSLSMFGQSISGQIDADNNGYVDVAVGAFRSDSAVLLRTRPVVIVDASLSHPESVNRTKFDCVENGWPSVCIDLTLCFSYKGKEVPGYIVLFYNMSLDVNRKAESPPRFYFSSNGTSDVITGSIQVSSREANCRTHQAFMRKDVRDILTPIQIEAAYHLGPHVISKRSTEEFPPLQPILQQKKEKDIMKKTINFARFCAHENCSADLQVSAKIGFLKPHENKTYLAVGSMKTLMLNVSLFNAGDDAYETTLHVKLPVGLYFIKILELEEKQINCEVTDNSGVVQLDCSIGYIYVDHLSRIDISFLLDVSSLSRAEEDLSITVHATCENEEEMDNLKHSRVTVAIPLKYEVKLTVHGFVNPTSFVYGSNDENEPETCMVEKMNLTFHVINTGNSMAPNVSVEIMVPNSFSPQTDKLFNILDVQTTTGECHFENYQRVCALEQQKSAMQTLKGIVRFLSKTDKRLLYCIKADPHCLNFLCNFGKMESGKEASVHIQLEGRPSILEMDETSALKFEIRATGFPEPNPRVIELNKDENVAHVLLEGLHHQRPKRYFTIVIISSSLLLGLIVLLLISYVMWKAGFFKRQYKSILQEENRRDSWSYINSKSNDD
Assay type: cell-based

IC50 | SMILES
0.237 µM | O=C(O)c1nc(CN(C2CCCCC2)S(=O)(=O)c2cc(Cl)cc(Cl)c2)[nH]c1Cc1ccc(-c2ccccc2)cc1
0.285 µM | O=C(O)c1[nH]c(CN(C2CCCCC2)S(=O)(=O)c2cc(Cl)cc(Cl)c2)nc1Cc1ccc2ccccc2c1
2.1 µM | O=C(O)C(Cc1ccccc1)N1C[C@@H]2CCN(S(=O)(=O)c3cc(Cl)cc(Cl)c3)[C@@H]2C1=O (stereo not given in full)
0.0014 µM | O=C(O)[C@H](Cc1ccccc1)NC(=O)[C@@H]1CCCN1S(=O)(=O)c1cc(Cl)cc(Cl)c1
0.00064 µM | COc1ccccc1-c1ccc(C[C@H](NC(=O)[C@@H]2CCCN2S(=O)(=O)c2cc(Cl)cc(Cl)c2)C(=O)O)cc1
2.54 µM | CC(C)C(c1nc(Cc2ccc3ccccc3c2)c(C(=O)O)[nH]1)N(C)S(=O)(=O)c1cc(Cl)cc(Cl)c1 (stereo not given)

The compounds below were run against Integrin alpha-4 (Homo sapiens) (UniProt P13612) (assay: Displacement of [125I]VCAMIg from VLA4 expressed in Jurkat cells at 100 uM).
Assay type: cell-based

inhibition | SMILES
8% | O=C(O)c1[nH]c(C2CCCN2S(=O)(=O)c2cc(Cl)cc(Cl)c2)nc1-c1ccc2ccccc2c1 (stereo not given)
45% | O=C(O)c1[nH]c(CN(C2CCCCC2)S(=O)(=O)c2cc(Cl)cc(Cl)c2)nc1-c1ccc(-c2ccccc2)cc1
30% | O=C(O)c1[nH]c(C2CCCN2S(=O)(=O)c2cc(Cl)cc(Cl)c2)nc1Cc1ccc2ccccc2c1 (stereo not given)
19% | O=C(O)c1nc(C2CCCN2S(=O)(=O)c2cc(Cl)cc(Cl)c2)sc1-c1ccc2ccccc2c1 (stereo not given)

— ChEMBL document CHEMBL1141621, “Constraining the amide bond in N-sulfonylated dipeptide VLA-4 antagonists” (Bioorg Med Chem Lett, 2008)
